{
  "source": "patent US9408831B2",
  "about": "“Methods for treating respiratory viral infection” (Celgene Corporation, priority 2010, dated 2016)",
  "format_in_all_cases": "in vivo, mice",
  "key": {"[1]": {"tested_on": "influenza X31 strain (H3N2)"}, "[2]": {"tested_on": "influenza X31 strain (H3N2)", "experiment": "Total viable cell counts in the airway (BAL) and lung tissue, trypan blue exclusion", "conditions": "100 μg/mouse i.p. daily"}, "[3]": {"tested_on": "influenza X31 strain (H3N2)", "experiment": "T cell recruitment (CD4, CD8 surface markers) by flow cytometry"}, "[4]": {"tested_on": "influenza X31 strain (H3N2)", "conditions": "day 7"}, "[5]": {"tested_on": "influenza X31 strain (H3N2)", "conditions": "lung homogenates, FIG. 9"}, "[6]": {"tested_on": "influenza X31 strain (H3N2)", "experiment": "Macrophages and neutrophils in airspaces and lung by flow cytometry"}, "[7]": {"conditions": "early (day 3), 100 μg/mouse i.p. daily, FIG. 5"}, "[8]": {"conditions": "day 7, between the animal groups"}},
  "note": "Entries after “also recorded” stand apart in the source; their conditions may differ.",
  "data": [
    {"smiles": "COc1ccc(C(CC(N)=O)N2Cc3ccccc3C2=O)cc1OC", "note": "(stereo not shown) [Compound 1]", "values": [
      {"measurement": "weight loss (percent original weight)", "setting": "[1]; 100 μg/mouse i.p. daily days 0-6, vs vehicle control and untreated, FIG. 1", "value": "significantly reduced weight loss"},
      {"measurement": "visible health appearance", "setting": "[1]; controls hunched and cachexic on day 5", "value": "appeared visibly in better health"},
      {"measurement": "cellular infiltrate into the airway (BAL), total viable cells", "setting": "[2]; […], FIG. 2", "value": "significantly reduced the cellular infiltrate"},
      {"measurement": "cell counts in the airway (BAL fluid) relative to infected mice not treated", "setting": "[2]; day 3", "value": "less than half"},
      {"measurement": "reduction of cellular infiltrate in the lung parenchyma", "setting": "[2]; day 3 or day 7, FIG. 2", "value": "not observed"},
      {"measurement": "reduction of cellular infiltrate into the airway (BAL)", "setting": "[2]; day 7, FIG. 2", "value": "not observed"},
      {"measurement": "CD8+ T cells", "setting": "[3]; any time point analyzed (day 3, day 7)", "value": "No difference"},
      {"measurement": "early CD4+ T cell recruitment to the airways (BAL)", "setting": "[3]; day 3, 100 μg/mouse i.p. daily, FIG. 5", "value": "reduced"},
      {"measurement": "T cell recruitment / later T cell populations (CD4)", "setting": "[3]; day 7, airway and lung, FIG. 6", "value": "no differences; also recorded: did not affect later T cell populations"},
      {"measurement": "CD4+ T cells in the lung parenchyma", "setting": "[3]; [7]", "value": "corresponding accumulation"},
      {"measurement": "T cell recruitment", "setting": "[3]; [7]", "value": "reduced T cell recruitment; also recorded: affected early T cell recruitment"},
      {"measurement": "CD8+ T cells cytokine expression", "setting": "[4]", "value": "remained unchanged"},
      {"measurement": "CD4+ T cells producing IFNγ in the lung tissue", "setting": "[4]; vs untreated mice and vehicle controls, FIG. 7", "value": "partial reduction"},
      {"measurement": "recovered viral titer", "setting": "[5]; early stages of viral replication (day 3)", "value": "blunted the recovered viral titer"},
      {"measurement": "peak viral load", "setting": "[5]; 100 μg/mouse i.p. daily", "value": "reduced peak viral load"},
      {"measurement": "proportion of macrophages among cells recovered from the airspaces", "setting": "[6]; […], 100 μg/mouse i.p. daily, FIG. 3", "value": "higher proportion"},
      {"measurement": "neutrophils (CD11c+ and Ly6g+) in the airspaces, reduction in total cells", "setting": "[6]; day 3, 100 μg/mouse i.p. daily, FIG. 4", "value": "primarily associated with neutrophils"},
      {"measurement": "number of macrophages, all sites", "setting": "[6]; [8]", "value": "no significant differences"},
      {"measurement": "number of neutrophils, all sites", "setting": "[6]; [8]", "value": "no significant differences"}
    ]}
  ]
}
